Laboratory results: ChEMBL document CHEMBL1201862, “PubChem BioAssay data set” (2004)
The source made the active and inactive calls.

Key:
Type in all cases: functional
[1] = molecular target: Protein kinase C theta type (Homo sapiens, UniProt Q04759); test: Navigating the Kinome. Panel member name: PRKCQ
[2] = molecular target: Ribosomal protein S6 kinase alpha-3 (Homo sapiens, UniProt P51812);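 also: measured within a kinome-wide profiling panel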
[3] = molecular target: Dual specificity protein kinase CLK2 (Homo sapiens, UniProt P49760)
[4] = molecular target: Dual specificity mitogen-activated protein kinase kinase 1 (Homo sapiens, UniProt Q02750); test: Navigating the Kinome. Panel member name: MAP2K1
[5] = molecular target: Tyrosine-protein kinase JAK2 (Homo sapiens, UniProt O60674);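 also: JAK2 tested as one member of a kinase panel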
[6] = molecular target: Serine/threonine-protein kinase TBK1 (Homo sapiens, UniProt Q9UHD2); test: Navigating the Kinome. Panel member name: TBK1
[7] = molecular target: 5'-AMP-activated protein kinase catalytic subunit alpha-1 (Homo sapiens, UniProt Q13131)
[8] = molecular target: ALK tyrosine kinase receptor (Homo sapiens, UniProt Q9UM73);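 also: ALK tested as one member of a kinase panel screen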
[9] = molecular target: Tyrosine-protein kinase receptor TYRO3 (Homo sapiens, UniProt Q06418);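 also: TYRO3 value obtained as one member of a kinome-wide profiling panel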
[10] = molecular target: Serine/threonine-protein kinase D3 (Homo sapiens, UniProt O94806);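 also: determined within a kinase panel screen, with PRKCN as the panel member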
[11] = molecular target: Tyrosine-protein kinase Lck (Homo sapiens, UniProt P06239);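 also: lck was assayed as one member of a kinase panel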
[12] = molecular target: Death-associated protein kinase 3 (Homo sapiens, UniProt O43293);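 also: measured as one member of a kinome-wide profiling panel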
[13] = molecular target: Activin receptor type-1 (Homo sapiens, UniProt Q04771); test: Navigating the Kinome. Panel member name: ACVR1
[14] = molecular target: Mitogen-activated protein kinase 8 (Homo sapiens, UniProt P45983);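 also: value comes from one member of a kinome-wide kinase profiling panel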
[15] = molecular target: Serine/threonine-protein kinase pim-1 (Homo sapiens, UniProt P11309)
[16] = molecular target: Aurora kinase A (Homo sapiens, UniProt O14965);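 also: value from the Navigating the Kinome kinase panel profiling, panel entry STK6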
[17] = molecular target: Tyrosine-protein kinase BTK (Homo sapiens, UniProt Q06187)
[18] = molecular target: Serine/threonine-protein kinase PAK 4 (Homo sapiens, UniProt O96013);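 also: value obtained within a kinome profiling panel in which PAK4 was one of the panel members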
[19] = molecular target: Fibroblast growth factor receptor 1 (Homo sapiens, UniProt P11362)
[20] = molecular target: Casein kinase I isoform alpha (Homo sapiens, UniProt P48729)
[21] = molecular target: Tyrosine-protein kinase JAK3 (Homo sapiens, UniProt P52333)
[22] = molecular target: Mitogen-activated protein kinase 9 (Homo sapiens, UniProt P45984);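 also: value from a kinome panel profiling assay, MAPK9 panel entry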
[23] = molecular target: LIM domain kinase 1 (Homo sapiens, UniProt P53667); test: Navigating the Kinome. Panel member name: LIMK1
[24] = molecular target: Serine/threonine-protein kinase TAO1 (Homo sapiens, UniProt Q7L7X3)
[25] = molecular target: High affinity nerve growth factor receptor (Homo sapiens, UniProt P04629);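 also: NTRK1 tested as one member of a kinome-wide profiling panel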
[26] = molecular target: Glycogen synthase kinase-3 alpha (Homo sapiens, UniProt P49840);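 also: GSK3A result taken from a broad kinome-wide kinase panel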
[27] = molecular target: Mitogen-activated protein kinase kinase kinase kinase 2 (Homo sapiens, UniProt Q12851);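 also: measured as one member of a kinome-wide kinase panel, with MAP4K2 as the panel entry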
[28] = molecular target: Activated CDC42 kinase 1 (Homo sapiens, UniProt Q07912); test: Navigating the Kinome. Panel member name: ACK1
[29] = molecular target: Platelet-derived growth factor receptor beta (Homo sapiens, UniProt P09619);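 also: value comes from a kinome panel, with PDGFRB tested as one panel member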
[30] = molecular target: Receptor-type tyrosine-protein kinase FLT3 (Homo sapiens, UniProt P36888);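 also: FLT3 was tested as one member of a kinome-wide kinase panel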
[31] = molecular target: Serine/threonine-protein kinase Chk1 (Homo sapiens, UniProt O14757);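 also: measured as one member of a kinome-wide kinase profiling panel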
[32] = molecular target: Tyrosine-protein kinase ABL1 (Homo sapiens, UniProt P00519)
[33] = molecular target: Vascular endothelial growth factor receptor 2 (Homo sapiens, UniProt P35968)
[34] = molecular target: Insulin-like growth factor 1 receptor (Homo sapiens, UniProt P08069); test: Navigating the Kinome. Panel member name: IGF1R
[35] = molecular target: Dual specificity tyrosine-phosphorylation-regulated kinase 1B (Homo sapiens, UniProt Q9Y463); test: Navigating the Kinome. Panel member name: DYRK1B
[36] = molecular target: cAMP-dependent protein kinase catalytic subunit PRKX (Homo sapiens, UniProt P51817)
[37] = molecular target: Focal adhesion kinase 1 (Homo sapiens, UniProt Q05397);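 also: measured as one member of a kinome panel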
[38] = molecular target: Platelet-derived growth factor receptor alpha (Homo sapiens, UniProt P16234); test: Navigating the Kinome. Panel member name: PDGFRA
[39] = molecular target: Leucine-rich repeat serine/threonine-protein kinase 2 (Homo sapiens, UniProt Q5S007);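 also: value from a broad kinome-wide panel profiling study in which LRRK2 was one of the kinases tested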
[40] = molecular target: Aurora kinase B (Homo sapiens, UniProt Q96GD4)
[41] = molecular target: Rho-associated protein kinase 1 (Homo sapiens, UniProt Q13464);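 also: measured within a broad kinome-wide panel profiling many kinases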
[42] = molecular target: Tyrosine-protein kinase Fyn (Homo sapiens, UniProt P06241)
[43] = molecular target: Serine/threonine-protein kinase Nek2 (Homo sapiens, UniProt P51955)
[44] = molecular target: Cyclin-dependent kinase 8 (Homo sapiens, UniProt P49336); test: Navigating the Kinome. Panel member name: CDK8
[45] = molecular target: Cyclin-dependent kinase 7 (Homo sapiens, UniProt P50613);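 also: value comes from a kinome-wide kinase profiling panel in which CDK7 is one member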
[46] = molecular target: Vascular endothelial growth factor receptor 1 (Homo sapiens, UniProt P17948);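 also: measured within a kinome-wide profiling panel, FLT1 as the panel member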
[47] = molecular target: Glycogen synthase kinase-3 beta (Homo sapiens, UniProt P49841);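 also: value comes from a broad kinome profiling panel, with GSK3B as the panel member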
[48] = molecular target: Cyclin-dependent kinase 9 (Homo sapiens, UniProt P50750);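 also: value from the CDK9 entry of a kinome-spanning kinase panel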
[49] = molecular target: BDNF/NT-3 growth factors receptor (Homo sapiens, UniProt Q16620);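 also: NTRK2 measured as one member of a broad kinome-wide kinase profiling panel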
[50] = molecular target: cAMP-dependent protein kinase catalytic subunit alpha (Homo sapiens, UniProt P17612)
[51] = molecular target: Dual specificity protein kinase CLK4 (Homo sapiens, UniProt Q9HAZ1)
[52] = molecular target: Mitogen-activated protein kinase kinase kinase kinase 4 (Homo sapiens, UniProt O95819)
[53] = molecular target: Macrophage-stimulating protein receptor (Homo sapiens, UniProt Q04912); test: Navigating the Kinome. Panel member name: MST1R
[54] = molecular target: Macrophage colony-stimulating factor 1 receptor (Homo sapiens, UniProt P07333);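 also: value comes from the Navigating the Kinome screening panel, CSF1R member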
[55] = molecular target: Dual specificity mitogen-activated protein kinase kinase 2 (Homo sapiens, UniProt P36507); test: Navigating the Kinome. Panel member name: MAP2K2
[56] = molecular target: Dual specificity tyrosine-phosphorylation-regulated kinase 1A (Homo sapiens, UniProt Q13627);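 also: measured against DYRK1A as one member of a broad kinome profiling panel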
[57] = molecular target: Inhibitor of nuclear factor kappa-B kinase subunit epsilon (Homo sapiens, UniProt Q14164); test: Navigating the Kinome. Panel member name: IKBKE
[58] = molecular target: Calcium/calmodulin-dependent protein kinase type II subunit alpha (Homo sapiens, UniProt Q9UQM7); test: Navigating the Kinome. Panel member name: CAMK2A
[59] = molecular target: Leukocyte tyrosine kinase receptor (Homo sapiens, UniProt P29376); test: Navigating the Kinome. Panel member name: LTK

Measured: Ki

Chain of Tyrosine-protein kinase receptor TYRO3 (Q06418 whole entry): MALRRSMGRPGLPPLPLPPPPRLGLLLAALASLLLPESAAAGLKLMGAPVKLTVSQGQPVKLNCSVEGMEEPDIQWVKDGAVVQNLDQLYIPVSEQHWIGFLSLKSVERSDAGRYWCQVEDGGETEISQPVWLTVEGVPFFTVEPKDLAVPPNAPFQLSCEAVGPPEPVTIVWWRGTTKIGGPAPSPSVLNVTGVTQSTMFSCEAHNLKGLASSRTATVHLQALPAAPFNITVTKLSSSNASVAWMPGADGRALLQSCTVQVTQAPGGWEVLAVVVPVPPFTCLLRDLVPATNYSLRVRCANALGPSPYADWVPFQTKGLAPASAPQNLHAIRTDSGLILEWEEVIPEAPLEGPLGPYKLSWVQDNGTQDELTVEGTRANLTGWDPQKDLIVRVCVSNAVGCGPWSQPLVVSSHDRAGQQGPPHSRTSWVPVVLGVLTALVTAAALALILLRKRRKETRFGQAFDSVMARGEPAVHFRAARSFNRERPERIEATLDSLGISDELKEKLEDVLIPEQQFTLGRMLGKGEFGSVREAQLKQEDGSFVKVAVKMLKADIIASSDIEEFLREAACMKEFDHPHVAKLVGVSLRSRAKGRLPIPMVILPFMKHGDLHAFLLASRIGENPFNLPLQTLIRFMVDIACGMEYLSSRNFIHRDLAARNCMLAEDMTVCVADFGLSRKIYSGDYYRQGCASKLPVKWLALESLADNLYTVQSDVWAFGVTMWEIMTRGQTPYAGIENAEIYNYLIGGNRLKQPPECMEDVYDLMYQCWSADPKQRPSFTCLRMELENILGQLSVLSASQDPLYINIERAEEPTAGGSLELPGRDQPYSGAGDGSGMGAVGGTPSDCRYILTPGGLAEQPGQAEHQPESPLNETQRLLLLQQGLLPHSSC
Chain of Dual specificity protein kinase CLK2 (P49760 whole entry): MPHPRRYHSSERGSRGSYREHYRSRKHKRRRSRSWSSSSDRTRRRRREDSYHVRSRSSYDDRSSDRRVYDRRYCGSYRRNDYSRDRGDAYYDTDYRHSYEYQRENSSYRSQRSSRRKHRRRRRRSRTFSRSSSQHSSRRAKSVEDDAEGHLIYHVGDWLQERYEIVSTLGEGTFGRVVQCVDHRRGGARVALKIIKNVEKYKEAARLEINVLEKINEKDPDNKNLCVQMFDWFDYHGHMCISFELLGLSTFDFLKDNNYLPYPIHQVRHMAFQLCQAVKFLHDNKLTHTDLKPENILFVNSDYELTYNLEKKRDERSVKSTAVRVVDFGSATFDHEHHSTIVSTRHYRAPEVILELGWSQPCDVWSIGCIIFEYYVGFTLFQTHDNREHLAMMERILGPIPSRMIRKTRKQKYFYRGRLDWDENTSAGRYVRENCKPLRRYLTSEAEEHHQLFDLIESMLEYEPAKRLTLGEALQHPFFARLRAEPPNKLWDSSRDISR
Chain of Mitogen-activated protein kinase kinase kinase kinase 4 (O95819 whole entry): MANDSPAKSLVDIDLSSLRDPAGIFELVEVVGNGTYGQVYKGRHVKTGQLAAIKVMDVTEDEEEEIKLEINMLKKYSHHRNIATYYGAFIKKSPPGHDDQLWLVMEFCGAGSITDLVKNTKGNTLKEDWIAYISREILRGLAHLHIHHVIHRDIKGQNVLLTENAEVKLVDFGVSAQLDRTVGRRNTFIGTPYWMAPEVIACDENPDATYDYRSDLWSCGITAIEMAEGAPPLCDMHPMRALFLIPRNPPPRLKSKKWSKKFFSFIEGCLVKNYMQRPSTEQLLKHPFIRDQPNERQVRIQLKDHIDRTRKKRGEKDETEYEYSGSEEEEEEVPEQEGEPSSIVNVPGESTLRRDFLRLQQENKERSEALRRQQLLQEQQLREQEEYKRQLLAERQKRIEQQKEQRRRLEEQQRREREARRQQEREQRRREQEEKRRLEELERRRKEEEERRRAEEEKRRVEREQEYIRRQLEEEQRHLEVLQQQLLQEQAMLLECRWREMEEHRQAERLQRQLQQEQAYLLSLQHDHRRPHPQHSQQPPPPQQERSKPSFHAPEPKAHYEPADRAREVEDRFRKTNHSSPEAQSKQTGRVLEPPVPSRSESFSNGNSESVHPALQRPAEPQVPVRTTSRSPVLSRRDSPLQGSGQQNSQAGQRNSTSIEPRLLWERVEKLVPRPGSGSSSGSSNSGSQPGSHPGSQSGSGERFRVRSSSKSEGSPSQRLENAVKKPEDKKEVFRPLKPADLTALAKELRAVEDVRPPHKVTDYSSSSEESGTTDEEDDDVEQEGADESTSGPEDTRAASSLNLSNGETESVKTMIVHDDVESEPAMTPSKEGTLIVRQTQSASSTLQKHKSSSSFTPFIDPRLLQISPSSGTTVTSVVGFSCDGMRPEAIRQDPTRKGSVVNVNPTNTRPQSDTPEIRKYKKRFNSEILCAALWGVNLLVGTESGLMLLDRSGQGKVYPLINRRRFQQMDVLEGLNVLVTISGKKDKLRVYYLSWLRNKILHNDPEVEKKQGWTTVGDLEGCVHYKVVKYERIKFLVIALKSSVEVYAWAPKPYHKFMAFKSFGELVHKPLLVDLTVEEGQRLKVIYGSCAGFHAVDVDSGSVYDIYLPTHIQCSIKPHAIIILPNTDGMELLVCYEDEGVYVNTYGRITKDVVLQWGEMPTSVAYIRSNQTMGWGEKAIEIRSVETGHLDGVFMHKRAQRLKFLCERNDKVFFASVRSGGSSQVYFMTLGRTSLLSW
Chain of Dual specificity protein kinase CLK4 (Q9HAZ1 whole entry): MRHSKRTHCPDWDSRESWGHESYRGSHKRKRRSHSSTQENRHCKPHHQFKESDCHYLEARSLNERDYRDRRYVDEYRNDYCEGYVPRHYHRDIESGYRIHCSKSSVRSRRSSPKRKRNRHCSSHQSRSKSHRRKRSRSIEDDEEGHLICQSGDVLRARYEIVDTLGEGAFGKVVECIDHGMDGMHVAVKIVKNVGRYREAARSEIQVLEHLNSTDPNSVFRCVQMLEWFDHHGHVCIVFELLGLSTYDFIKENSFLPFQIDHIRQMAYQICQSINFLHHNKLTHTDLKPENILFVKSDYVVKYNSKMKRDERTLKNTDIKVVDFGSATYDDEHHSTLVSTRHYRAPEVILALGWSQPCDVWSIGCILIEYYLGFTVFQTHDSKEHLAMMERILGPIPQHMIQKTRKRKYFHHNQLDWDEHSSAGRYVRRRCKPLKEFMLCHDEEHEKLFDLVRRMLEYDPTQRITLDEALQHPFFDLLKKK
Chain of Mitogen-activated protein kinase kinase kinase kinase 2 (Q12851 whole entry): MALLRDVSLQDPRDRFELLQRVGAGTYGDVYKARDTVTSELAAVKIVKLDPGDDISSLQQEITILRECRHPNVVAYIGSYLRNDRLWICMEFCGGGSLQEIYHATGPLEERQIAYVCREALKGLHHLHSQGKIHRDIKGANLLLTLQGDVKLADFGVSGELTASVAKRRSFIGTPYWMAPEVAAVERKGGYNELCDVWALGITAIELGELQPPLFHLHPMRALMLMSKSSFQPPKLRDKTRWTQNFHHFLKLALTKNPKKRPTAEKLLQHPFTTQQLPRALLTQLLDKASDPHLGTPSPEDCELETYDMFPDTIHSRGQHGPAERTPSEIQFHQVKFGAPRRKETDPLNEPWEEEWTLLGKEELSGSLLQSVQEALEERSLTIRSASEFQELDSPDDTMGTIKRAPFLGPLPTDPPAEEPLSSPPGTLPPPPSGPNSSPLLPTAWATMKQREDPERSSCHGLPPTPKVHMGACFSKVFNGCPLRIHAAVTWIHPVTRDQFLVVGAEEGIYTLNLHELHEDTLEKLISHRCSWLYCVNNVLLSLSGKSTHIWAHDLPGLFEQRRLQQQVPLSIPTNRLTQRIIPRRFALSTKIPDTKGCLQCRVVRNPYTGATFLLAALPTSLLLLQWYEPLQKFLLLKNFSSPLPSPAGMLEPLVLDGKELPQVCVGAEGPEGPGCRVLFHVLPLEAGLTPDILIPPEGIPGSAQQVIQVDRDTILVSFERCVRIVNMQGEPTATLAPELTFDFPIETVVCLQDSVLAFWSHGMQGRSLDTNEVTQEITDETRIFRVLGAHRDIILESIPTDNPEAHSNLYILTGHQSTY
Chain of Inhibitor of nuclear factor kappa-B kinase subunit epsilon (Q14164 whole entry): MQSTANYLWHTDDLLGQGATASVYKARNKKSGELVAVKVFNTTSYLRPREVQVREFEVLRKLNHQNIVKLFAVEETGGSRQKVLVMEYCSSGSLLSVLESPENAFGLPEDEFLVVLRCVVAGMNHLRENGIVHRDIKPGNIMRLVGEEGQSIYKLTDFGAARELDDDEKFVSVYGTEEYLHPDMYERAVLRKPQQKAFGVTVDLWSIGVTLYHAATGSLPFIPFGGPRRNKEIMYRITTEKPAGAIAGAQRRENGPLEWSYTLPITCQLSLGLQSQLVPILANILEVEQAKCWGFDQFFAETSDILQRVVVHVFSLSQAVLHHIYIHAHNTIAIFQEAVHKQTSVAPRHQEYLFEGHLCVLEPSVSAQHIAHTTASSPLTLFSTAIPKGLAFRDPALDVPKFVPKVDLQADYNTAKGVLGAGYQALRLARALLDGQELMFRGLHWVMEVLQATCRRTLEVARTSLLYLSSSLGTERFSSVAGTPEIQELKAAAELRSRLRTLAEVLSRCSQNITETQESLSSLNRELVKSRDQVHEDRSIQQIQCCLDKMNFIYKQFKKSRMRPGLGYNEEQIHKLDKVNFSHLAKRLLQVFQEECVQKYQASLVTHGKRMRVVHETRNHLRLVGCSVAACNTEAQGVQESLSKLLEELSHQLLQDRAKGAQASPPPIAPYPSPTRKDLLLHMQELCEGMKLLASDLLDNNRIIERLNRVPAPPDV
Chain of Aurora kinase B (Q96GD4 whole entry): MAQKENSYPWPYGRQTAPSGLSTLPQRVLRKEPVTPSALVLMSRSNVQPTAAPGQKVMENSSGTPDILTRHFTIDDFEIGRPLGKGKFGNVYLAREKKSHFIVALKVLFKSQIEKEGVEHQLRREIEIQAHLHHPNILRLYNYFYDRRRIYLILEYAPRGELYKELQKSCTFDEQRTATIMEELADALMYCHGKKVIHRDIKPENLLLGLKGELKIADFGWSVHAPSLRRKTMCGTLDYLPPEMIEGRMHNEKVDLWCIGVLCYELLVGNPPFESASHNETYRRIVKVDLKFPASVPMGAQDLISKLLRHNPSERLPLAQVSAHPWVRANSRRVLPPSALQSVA

CCC(=O)Nc1ccc(C(=O)N2CCNCC2)c(O)c1
active: [1] 794 nM | [2] 501 nM | [4] 398 nM | [5] 501 nM | [7] 398 nM | [8] 631 nM | [9] 100 nM | [10] 2000 nM | [11] 1580 nM | [12] 794 nM | [14] 631 nM | [15] 79.4 nM | [16] 158 nM | [17] 1580 nM | [18] 794 nM | [19] 158 nM | [20] 794 nM | [21] 631 nM | [22] 398 nM | [23] 501 nM | [24] 2510 nM | [25] 126 nM | [26] 316 nM | [27] 398 nM | [28] 631 nM | [29] 316 nM | [30] 316 nM | [31] 398 nM | [32] 1000 nM | [33] 1580 nM | [34] 398 nM | [35] 63.1 nM | [36] 631 nM | [37] 3980 nM | [38] 1000 nM | [40] 501 nM | [41] 1000 nM | [42] 794 nM | [43] 501 nM | [44] 251 nM | [45] 631 nM | [47] 100 nM | [48] 50.1 nM | [49] 794 nM | [50] 100 nM | [51] 39.8 nM | [53] 631 nM | [54] 251 nM | [55] 200 nM | [56] 126 nM | [57] 2510 nM | [58] 158 nM | [59] 79.4 nM
inactive: [3] > 3980 nM | [6] > 3160 nM | [13] > 3980 nM | [39] > 2510 nM | [46] > 3980 nM | [52] > 5010 nM
